Measurements published in patent US10004701B2, “Methods and compositions for treating infection” (UNIVERSITY OF ROCHESTER, priority 2012, dated 2018).
Where a name gives a salt, the structure may show the parent alone. Read-outs that look alike come from different tables or passages of the source.

Assays:
Assay in all cases: AK assay 384-well format, Prestwick library screening
E. cloacae = format: cell-based, Enterobacter cloacae; details: 50 μM final drug concentration; for AK-based Prestwick Library Screening Results, E. cloacae (fold increase in extracellular AK activity): planktonic; for fold induction at 50 µM: Enterobacter cloacae, 3 h
E. coli = format: cell-based, Escherichia coli; details: 50 μM final drug concentration; for AK-based Prestwick Library Screening Results, E. coli (fold increase in extracellular AK activity): planktonic; for fold induction at 50 µM: Escherichia coli, 3 h
K. pneumoniae = format: cell-based, Klebsiella pneumoniae; details: 50 μM final drug concentration; for AK-based Prestwick Library Screening Results, K. pneumoniae (fold increase in extracellular AK activity): planktonic; for fold induction at 50 µM: Klebsiella pneumoniae, 3 h
[1] = system: S. aureus strain USA300-0114; format: cell-based, Staphylococcus aureus; details: 50 μM final drug concentration; for AK-based Prestwick Library Screening Results, S. aureus (fold increase in extracellular AK activity): planktonic; for fold induction at 50 µM: Staphylococcus aureus, USA300, 3 h
P. aeruginosa = format: cell-based, Pseudomonas aeruginosa; details: 50 μM final drug concentration; for AK-based Prestwick Library Screening Results, P. aeruginosa (fold increase in extracellular AK activity): planktonic; for fold induction at 50 µM: Pseudomonas aeruginosa, 3 h
E. faecium = format: cell-based, Enterococcus faecium; details: 50 μM final drug concentration; for AK-based Prestwick Library Screening Results, E. faecium (fold increase in extracellular AK activity): planktonic; for fold induction at 50 µM: Enterococcus faecium, 3 h
[2] = system: A. baumannii strain 98-37-09; format: cell-based, Acinetobacter baumannii; details: 50 μM final drug concentration; for AK-based Prestwick Library Screening Results, A. baumannii (fold increase in extracellular AK activity): planktonic; for fold induction at 50 µM: Acinetobacter baumannii, 983709, 3 h
[3] = cutoff for positive 3-fold increase
[4] = cutoff for positive-scoring molecules 3-fold increase, read-out: AK-based Prestwick Library Screening Results, E. cloacae (fold increase in extracellular AK activity)
[5] = cutoff for positive-scoring molecules 3-fold increase, read-out: AK-based Prestwick Library Screening Results, E. coli (fold increase in extracellular AK activity)
[6] = cutoff for positive-scoring molecules 3-fold increase, read-out: AK-based Prestwick Library Screening Results, K. pneumoniae (fold increase in extracellular AK activity)
[7] = cutoff for positive-scoring molecules 3-fold increase, read-out: AK-based Prestwick Library Screening Results, S. aureus (fold increase in extracellular AK activity)
[8] = cutoff for positive-scoring molecules 3-fold increase, read-out: AK-based Prestwick Library Screening Results, P. aeruginosa (fold increase in extracellular AK activity)
[9] = cutoff for positive-scoring molecules 3-fold increase, read-out: AK-based Prestwick Library Screening Results, E. faecium (fold increase in extracellular AK activity)
[10] = cutoff for positive-scoring molecules 3-fold increase, read-out: AK-based Prestwick Library Screening Results, A. baumannii (fold increase in extracellular AK activity)
[11] = 384-well format, cutoff for positive-scoring molecules 3-fold increase

C[N+]1(C)CCC[C@H]1C(=O)[O-].Cl [Stachydrine hydrochloride]
AK-based Prestwick Library Screening Results, E. cloacae (fold increase in extracellular AK activity) (E. cloacae; [3]): 1.5
AK-based Prestwick Library Screening Results, E. coli (fold increase in extracellular AK activity) (E. coli; [3]): 1.4
AK-based Prestwick Library Screening Results, K. pneumoniae (fold increase in extracellular AK activity) (K. pneumoniae; [3]): 1.1
AK-based Prestwick Library Screening Results, S. aureus (fold increase in extracellular AK activity) [1, 3]: 1.0
AK-based Prestwick Library Screening Results, P. aeruginosa (fold increase in extracellular AK activity) (P. aeruginosa; [3]): 1.2
AK-based Prestwick Library Screening Results, E. faecium (fold increase in extracellular AK activity) (E. faecium; [3]): 1.0
AK-based Prestwick Library Screening Results, A. baumannii (fold increase in extracellular AK activity) [2, 3]: 1.4

[H]/N=C(/N)N[C@H]1[C@H](O)[C@@H](O)[C@H](O[C@@H]2O[C@@H](C)[C@](O)(C=O)[C@H]2O[C@@H]2O[C@@H](CO)[C@H](O)[C@@H](O)[C@@H]2NC)[C@@H](N/C(N)=N\[H])[C@@H]1O [Streptomycin sulfate]
fold induction at 50 µM (E. cloacae; planktonic E. cloacae, 384-well, cutoff for positive-scoring molecules 3-fold increase, read-out: AK-based Prestwick Library Screening Results: E. cloacae (increase in extracellular AK activity)): 0.3
fold induction at 50 µM (E. coli; planktonic E. coli, 384-well, cutoff for positive-scoring molecules 3-fold increase, read-out: AK-based Prestwick Library Screening Results: E. coli (increase in extracellular AK activity)): 0.5
fold induction at 50 µM (K. pneumoniae; planktonic K. pneumoniae, 384-well, cutoff for positive-scoring molecules 3-fold increase, read-out: AK-based Prestwick Library Screening Results: K. pneumoniae (increase in extracellular AK activity)): 0.3
fold induction at 50 µM ([1]; planktonic S. aureus, 384-well, cutoff for positive-scoring molecules 3-fold increase, read-out: AK-based Prestwick Library Screening Results: S. aureus (increase in extracellular AK activity)): 0.4
fold induction at 50 µM (P. aeruginosa; planktonic P. aeruginosa, 384-well, cutoff for positive-scoring molecules 3-fold increase, read-out: AK-based Prestwick Library Screening Results: P. aeruginosa (increase in extracellular AK activity)): 0.4
fold induction at 50 µM (E. faecium; planktonic E. faecium, 384-well, cutoff for positive-scoring molecules 3-fold increase, read-out: AK-based Prestwick Library Screening Results: E. faecium (increase in extracellular AK activity)): 0.9
fold induction at 50 µM ([2]; planktonic A. baumannii, 384-well, cutoff for positive-scoring molecules 3-fold increase, read-out: AK-based Prestwick Library Screening Results: A. baumannii (increase in extracellular AK activity)): 0.4

C[C@]12CC[C@H]3[C@@H](CC[C@]4(O)C[C@@H](O)CC[C@]34C=O)[C@@]1(O)CC[C@@H]2C1=CC(=O)OC1 [Strophanthidin]
fold induction at 50 µM (E. cloacae; […], read-out: AK-based Prestwick Library Screening Results, E. cloacae (fold increase in extracellular AK activity)): 1.3
fold induction at 50 µM (E. coli; […], read-out: AK-based Prestwick Library Screening Results, E. coli (fold increase in extracellular AK activity)): 1.4
fold induction at 50 µM (K. pneumoniae; […], read-out: AK-based Prestwick Library Screening Results, K. pneumoniae (fold increase in extracellular AK activity)): 1.1
fold induction at 50 µM ([1]; […], read-out: AK-based Prestwick Library Screening Results, S. aureus (fold increase in extracellular AK activity)): 1.3
fold induction at 50 µM (P. aeruginosa; […], read-out: AK-based Prestwick Library Screening Results, P. aeruginosa (fold increase in extracellular AK activity)): 1.1
fold induction at 50 µM (E. faecium; […], read-out: AK-based Prestwick Library Screening Results, E. faecium (fold increase in extracellular AK activity)): 1
fold induction at 50 µM ([2]; […], read-out: AK-based Prestwick Library Screening Results, A. baumannii (fold increase in extracellular AK activity)): 1.3

C[C@@H]1O[C@@H](O[C@H]2C[C@@H](O)[C@]3(CO)[C@H]4[C@H](O)C[C@]5(C)[C@@H](C6=CC(=O)OC6)CC[C@]5(O)[C@@H]4CC[C@]3(O)C2)[C@H](O)[C@H](O)[C@H]1O.O.O.O.O.O.O.O.O [Strophantine octahydrate]
AK-based Prestwick Library Screening Results, E. cloacae (fold increase in extracellular AK activity) (E. cloacae; […]): 1.7
AK-based Prestwick Library Screening Results, E. coli (fold increase in extracellular AK activity) (E. coli; […]): 1.2
AK-based Prestwick Library Screening Results, K. pneumoniae (fold increase in extracellular AK activity) (K. pneumoniae; […]): 0.9
AK-based Prestwick Library Screening Results, S. aureus (fold increase in extracellular AK activity) ([1]; […]): 1.1
AK-based Prestwick Library Screening Results, P. aeruginosa (fold increase in extracellular AK activity) (P. aeruginosa; […]): 1.1
AK-based Prestwick Library Screening Results, E. faecium (fold increase in extracellular AK activity) (E. faecium; […]): 1.0
AK-based Prestwick Library Screening Results, A. baumannii (fold increase in extracellular AK activity) ([2]; […]): 1.2

O=C(O)CCC(=O)Nc1ccc(S(=O)(=O)Nc2nccs2)cc1 [Succinylsulfathiazole]
fold induction at 50 µM (E. cloacae; [4]): 1.4
fold induction at 50 µM (E. coli; [5]): 1.4
fold induction at 50 µM (K. pneumoniae; [6]): 1.1
fold induction at 50 µM [1, 7]: 1.3
fold induction at 50 µM (P. aeruginosa; [8]): 1.1
fold induction at 50 µM (E. faecium; [9]): 1
fold induction at 50 µM [2, 10]: 1.3

Nc1ccc(S(=O)(=O)NC(=O)c2ccccc2)cc1 [Sulfabenzamide]
fold induction at 50 µM (E. cloacae; [4]): 1.6
fold induction at 50 µM (E. coli; [5]): 1.1
fold induction at 50 µM (K. pneumoniae; [6]): 1.1
fold induction at 50 µM [1, 7]: 1.2
fold induction at 50 µM (P. aeruginosa; [8]): 1.1
fold induction at 50 µM (E. faecium; [9]): 1.1
fold induction at 50 µM [2, 10]: 2.8

CC(=O)[N-]S(=O)(=O)c1ccc(N)cc1.O.[Na+] [Sulfacetamide sodic hydrate]
AK-based Prestwick Library Screening Results, E. cloacae (increase in extracellular AK activity) (E. cloacae; [11]): 0.7
AK-based Prestwick Library Screening Results, E. coli (increase in extracellular AK activity) (E. coli; [11]): 0.6
AK-based Prestwick Library Screening Results, K. pneumoniae (increase in extracellular AK activity) (K. pneumoniae; [11]): 0.5
AK-based Prestwick Library Screening Results, S. aureus (increase in extracellular AK activity) [1, 11]: 0.7
AK-based Prestwick Library Screening Results, P. aeruginosa (increase in extracellular AK activity) (P. aeruginosa; [11]): 0.5
AK-based Prestwick Library Screening Results, E. faecium (increase in extracellular AK activity) (E. faecium; [11]): 0.9
AK-based Prestwick Library Screening Results, A. baumannii (increase in extracellular AK activity) [2, 11]: 2.2

Nc1ccc(S(=O)(=O)Nc2ccc(Cl)nn2)cc1 [Sulfachloropyridazine]
fold induction at 50 µM (E. cloacae; [4]): 1.5
fold induction at 50 µM (E. coli; [5]): 1
fold induction at 50 µM (K. pneumoniae; [6]): 1.1
fold induction at 50 µM [1, 7]: 1.1
fold induction at 50 µM (P. aeruginosa; [8]): 1
fold induction at 50 µM (E. faecium; [9]): 1
fold induction at 50 µM [2, 10]: 2.1
